# From publication PMC12040169 (PLOS Biology, 2025)
# Peptide text beside a SMILES is read from it. * marks the point of attachment. Bz = O=C(c1ccccc1)*
# Assay: in vitro
# Settings: human, hela cells, % viability
SMILES,"viability at 28.5 h, 10 µM [%]","viability at 28.5 h, 10 µM (bulk resorufin, single well) [%]"
CC(Oc1ccc(/C=N/n2cnnc2)cc1)C(=O)O (stereo not shown) [CBK263927],82,
Cc1ccc(OCC(=O)NC(=S)Nc2ccc(Cl)c(-c3nc4ncccc4o3)c2)cc1 [CBK263930],103,
Cc1ccc(/C=C2\SC(=S)N(CC(=O)Nc3cccc(C(=O)O)c3)C2=O)cc1 [CBK263935],86.2,
Cc1ccc(OCCn2cc(/C=C3/C(=O)NC(=O)N(Cc4ccco4)C3=O)c3ccccc32)cc1 [CBK263936],,92.9
O=C1NC(=O)N(Cc2ccco2)C(=O)/C1=C\c1ccc(-c2ccc(Cl)c(C(=O)O)c2)o1 [CBK263937],,97.9
O=C1NC(=O)N(Cc2ccco2)C(=O)/C1=C\c1cn(Cc2ccccc2)c2ccccc12 [CBK263939],,88.5
O=C(NCCNc1c(Cl)cccc1[N+](=O)[O-])c1cccc(Br)c1 [CBK263940],91.4,
O=C(CSc1nc2ccccc2[nH]1)n1c2c(c3ccccc31)CCCC2 [CBK263945],92.8,
Cc1c(/C=C2\SC(=S)NC2=O)c2ccccc2n1Cc1ccccc1Cl [CBK263946],101,
COc1cc(/C=C2\C(=O)NN(c3ccccc3)C2=O)ccc1OCCOc1cc(C)ccc1C [CBK263947],80.5,
CC(Oc1ccc(Cl)cc1Cl)C(=O)NC1CC(C)(C)NC(C)(C)C1 (stereo not shown) [CBK263951C],90.3,
NCCNc1ccc(C(=O)Nc2cccc(Cl)c2)cc1[N+](=O)[O-] [CBK263953],85.3,
N=C1NC(=O)/C(=C/c2cccc(OCCOc3ccc(C4CCCCC4)cc3)c2)S1 [CBK263956],87.6,
O=C1CC(NCc2ccccc2)C(=O)N1c1ccc(N2C(=O)CC(NCc3ccccc3)C2=O)cc1 (stereo not shown) [CBK263963],88.6,
COc1ccc(N(CC(=O)Nc2cccc3cccnc23)S(=O)(=O)c2ccc(C)cc2)cc1 [CBK263965],74,
CC(C)Oc1ccc(CCNC(=N)NC(=N)N)cc1Cl [CBK263966],91.5,
Cc1ccc(S(=O)(=O)N(CC(=O)Nc2cccnc2)c2ccc(F)cc2)cc1 [CBK263968],85.6,
COc1ccc(Cl)cc1NC(=O)CCSc1ccccc1 [CBK263969],85,
S=C(NCCC(c1ccccc1)c1ccccc1)Nc1ccc(Cl)c(Cl)c1 [CBK263972],85.1,
Cc1cc(/C=C2\C(=O)NC(=S)N(c3ccccc3)C2=O)c(C)n1-c1cc(C(=O)O)cc(C(=O)O)c1 [CBK263975],,105
O=S(=O)(NCc1ccccn1)c1ccc(Cl)c(Cl)c1Cl [CBK263978],95.6,

SMILES,"viability at 28.5 h, 10 µM [%]","viability at 28.5 h, 10 µM (bulk resorufin, single well) [%]"
O=C(Nc1ccc(-c2nc3ccccc3s2)c(O)c1)c1ccc(-c2ccccc2)cc1 [CBK263979],92.9,
Cc1ccc(N(CC(=O)Nc2ccc(S(=O)(=O)N3CCCCC3)cc2)S(C)(=O)=O)c(C)c1 [CBK263981],99.8,
O=C(COc1ccccc1[N+](=O)[O-])Nc1cc(C(=O)O)cc(C(=O)O)c1 [CBK263983],93.9,
CCOC(=O)c1ccccc1NC(=O)CC1Nc2ccccc2NC1=O (stereo not shown) [CBK263990],91.3,
Cc1ccc(S(=O)(=O)NCCSc2ccccc2)cc1[N+](=O)[O-] [CBK263991],93.6,
O=C(Nc1ccc(S(=O)(=O)N2CCCCC2)cc1)c1ccc(CN2CCc3ccccc3C2)cc1 [CBK263993],90.7,
Cc1ccc(S(=O)(=O)N(CC(=O)NC2CC3CCC2C3)c2cc(Cl)cc(Cl)c2)cc1 (stereo not shown) [CBK263995],85.3,
OC(CN1CCOCC1)Cn1c(-c2ccccc2)c(-c2ccccc2)c2ccc3ccccc3c21 (stereo not shown) [CBK263996G],94.7,
Cc1ccc(CNC(=O)CN(c2cccc(C(F)(F)F)c2)S(=O)(=O)c2ccc(C)cc2)cc1 [CBK263997],89.3,
COc1ccccc1/C=C(/NC(=O)c1ccc(Cl)cc1Cl)C(=O)O [CBK263998],98.4,
O=C(CN(c1ccccc1F)S(=O)(=O)c1ccccc1)Nc1ccccc1C(=O)O [CBK263999],97.1,
COc1ccc(Cl)cc1NC(=O)C1CN(S(=O)(=O)c2ccccc2)CCN1S(=O)(=O)c1ccccc1 (stereo not shown) [CBK264000],93.3,
O=S(=O)(NCCSc1ccccn1)c1ccc(Br)cc1 [CBK264001],99.3,
COc1ccc(Br)cc1S(=O)(=O)n1ccnc1C [CBK264003],87.1,
Cc1cc(C)c2oc(-c3cccc(NC(=O)c4cccc(Cl)c4Cl)c3C)nc2c1 [CBK264005],84.2,
Cc1ccccc1CSCC(=O)Nc1ccc(S(=O)(=O)N2CCCCC2)cc1 [CBK264006],103,
O=S(=O)(NCc1cccnc1)c1ccc(Cl)c2ccccc12 [CBK264008],89.5,
Cc1ccccc1CNC(=O)c1ccc(C)c([N+](=O)[O-])c1 [CBK264010],110,
O=C(CN(c1ccc(Cl)cc1)S(=O)(=O)c1ccccc1)Nc1ccc(F)cc1 [CBK264013],90.5,
OC(CNCCc1ccccc1)CN1c2ccccc2Sc2ccccc21 (stereo not shown) [CBK264017G],97.6,
COc1ccc(N2C(=O)/C(=C/c3ccc(OCC(=O)O)c(Cl)c3)C(=O)NC2=S)cc1 [CBK264018],,93.7

SMILES,"viability at 28.5 h, 10 µM [%]","viability at 28.5 h, 10 µM (bulk resorufin, single well) [%]"
COc1ccc(I)cc1S(=O)(=O)NCc1ccccn1 [CBK264019],91.3,
Cc1ccc(S(=O)(=O)N(CC(=O)Nc2ccc(Cl)cc2C)c2cccc(Cl)c2C)cc1 [CBK264021],85.7,
Cc1ccc(-c2nc3cc(Cl)ccc3o2)cc1NC(=S)NC(=O)c1cccc(Cl)c1 [CBK264022],108,
COc1ccc(C(NC(=O)c2cccc(OC)c2)c2cc(Cl)c3cccnc3c2O)cc1 (stereo not shown) [CBK264027],90.7,
Cc1cc(/C=C2\C(=O)NC(=O)N(c3ccccc3F)C2=O)c(C)n1-c1cc(C(=O)O)cc(C(=O)O)c1 [CBK264028],,89.9
O=C(CSCc1ccc([N+](=O)[O-])cc1)Nc1ccc2c(c1)OCO2 [CBK264031],95.7,
O=S(=O)(NCc1cccnc1)c1ccc(Cl)c(Cl)c1Cl [CBK264032],91.1,
O=C(Nc1ccc2oc(-c3cccnc3)nc2c1)c1ccc(-c2ccccc2)cc1 [CBK264035],88.3,
COc1cc(C(=O)Nc2ccc3oc(-c4cccnc4)nc3c2)ccc1OCc1ccc(Cl)cc1 [CBK264037],87.9,
Cc1ccc(N(CC(=O)Nc2ccc(Br)c(C)c2)S(=O)(=O)c2ccc(C)cc2)cc1 [CBK264038],94.6,
Cc1ccccc1CNC(=O)CCSc1ccc(Cl)cc1 [CBK264040],102,
Cc1cc(/C=C2\C(=O)NC(=O)N(c3cccc(F)c3)C2=O)c(C)n1-c1cc(C(=O)O)cc(C(=O)O)c1 [CBK264041],,97.3
CC(Oc1ccc(/C=C/[N+](=O)[O-])cc1)C(=O)O (stereo not shown) [CBK264042],99.9,
CCCc1nc2oc3c(-c4ccccc4)c(C(=O)O)c(C)nc3c2c2c1COC(C)(C)C2 [CBK264044],89.2,
CCOC(=O)c1c(NC(=S)NC(=O)c2cccc(Cl)c2)sc2c1CCCC2 [CBK264045],88.2,
Cc1ccccc1CNC(=O)CN(c1cccc(C(F)(F)F)c1)S(=O)(=O)c1ccccc1 [CBK264047],102,
Cc1ccc(C(=O)NC(=S)Nc2cccc(NC(=O)c3ccccc3C)c2)cc1 [CBK264049],95.1,
COc1ccc(N(CC(=O)N2CCN(C)CC2)S(=O)(=O)c2ccc(C)c([N+](=O)[O-])c2)cc1 [CBK264051],89.8,
CN1CCc2c(C#N)c(N)n(N)c(=S)c2C1 [CBK264055],101,
Cc1ccc(S(=O)(=O)NCCSCc2ccc(Cl)cc2)cc1[N+](=O)[O-] [CBK264056],104,
Cn1nc(CC(=O)Nc2ccc(OC(=O)c3ccccc3)cc2)c2ccccc2c1=O [CBK264057],96,

SMILES,"viability at 28.5 h, 10 µM [%]","viability at 28.5 h, 10 µM (bulk resorufin, single well) [%]"
O=C(NC(Cc1ccccc1)C(=O)N1CCCC1C(=O)O)c1ccccc1 (stereo not drawn) [CBK264058] (Bz-Phe-Pro-OH; configuration not given here),90.8,
CC(Oc1ccccc1)C(=O)Nc1ccccc1-c1ccccc1 (stereo not shown) [CBK264059],111,
CC(Oc1ccccc1)C(=O)NCCCc1ccccc1 (stereo not shown) [CBK264060],93.4,
O=C(COc1cccc(Br)c1)Nc1nnc[nH]1 [CBK264063],94.1,
CC(C)(O)C#Cc1ccc(C(=O)N2CCC(C(N)=O)(N3CCCCC3)CC2)cc1 [CBK264065],97.3,
Cc1cc(C)c(C)c(C(=O)COC(=O)c2cc(O)nc3ccccc23)c1C [CBK264066],94.8,
Cc1sc2nc(SCC(=O)c3c[nH]c4ccccc34)nc(O)c2c1C [CBK264068],80.9,
COc1ccc(C(=O)COC(=O)c2cc(-c3ccc(Cl)cc3)nc3ccc(C)cc23)cc1[N+](=O)[O-] [CBK264072],90.6,
O=S(=O)(NC1c2cccc3cccc(c23)C1Sc1ccccn1)c1ccc(Cl)cc1 (stereo not shown) [CBK264073],95.1,
CC(=O)OC(C(=O)O)C(OC(C)=O)c1nc2ccccc2s1 (stereo not shown) [CBK264076],99.3,
O=C(O)CNC(=O)CN1C(=O)c2ccccc2C1=O [CBK264077],98.6,
O=S(=O)(NC1c2cccc3cccc(c23)C1N1CCNCC1)c1ccc(Cl)cc1 (stereo not shown) [CBK264082],92.2,
Cc1ccc(C(=O)COC(=O)c2cc(O)nc3ccccc23)cc1[N+](=O)[O-] [CBK264085],98.8,
Cc1noc(NS(=O)(=O)c2ccc(NC(=O)COc3cccc(Br)c3)cc2)c1C [CBK264086],104,
O=S(=O)(NCC(Nc1cccc2ccccc12)c1ccccc1)c1ccc(Cl)cc1 (stereo not shown) [CBK264087],90.3,
O=C(/C=C/c1cccc2ccccc12)N1CCCCCC1 [CBK264092],111,
Cc1cccc(N2C(=O)/C(=C/c3ccccc3OCc3ccc(C(=O)O)cc3)C(=O)NC2=S)c1 [CBK264100],,95.3
Cc1ccc(SCCNC(=O)C(C)Sc2ccc(Cl)cc2)cc1 (stereo not shown) [CBK264104],93.5,
O=C(NC(=S)Nc1ccc2oc(-c3ccncc3)nc2c1)c1ccccc1[N+](=O)[O-] [CBK264106],87.3,
